Test systems include BT-549; HCT-15; HL-60; KM12; NCI-H23; NCI/ADR-RES; OVCAR-5; OVCAR-8; PC-3; SF-295; SK-MEL-28; SK-MEL-2; T47D; ACHN; DMS-114; HCT-116; RXF 393; SF-539; SNB-78; Hs-578T.
Holding throughout (experiment): NCI anticancer screen, dose series, 48 h

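Assay format: 96-well plates, 48-hour exposure. The concentration for 50% growth inhibition is given as GI50.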 Calls of active or inactive are those of the source. No stated cut-off is given here; in the data, active = GI50 up to about 1.1 µM and inactive = higher.

On to `Cc1cccc(N2C(=O)C3c4[nH]c5ccc(C)cc5c4C4CCC(C(C)(C)C)CC4C3C2=O)c1` (stereo not given), for which the GI50 was 27.4 µM (inactive) in the assay on BT-549; 53.7 µM in the assay with HCT-15; 17.7 µM (inactive) in the assay on HL-60; 15.8 µM (inactive) in the assay on KM12; 26.1 µM (inactive) with NCI-H23; 17.6 µM (inactive) in the assay on NCI/ADR-RES. Moreover, the GI50 is 32.7 µM (inactive) with OVCAR-5; 19 µM (inactive) in the assay on OVCAR-8; 13.7 µM (inactive) in the assay on PC-3; 19.4 µM (inactive) with SF-295; 42.6 µM (inactive) with SK-MEL-28; 38.1 µM (inactive) in the assay on SK-MEL-2. Besides, in the assay on T47D, the GI50 was 14.3 µM (inactive).

As to `Cc1ccccc1OCC(COC(=O)Nc1ccccc1)OC(=O)Nc1ccccc1` (stereo not given), the GI50 with ACHN was > 100 µM (inactive); in the assay with DMS-114, 42.6 µM (inactive); in the assay on HCT-116, 15.8 µM (inactive); with HCT-15, > 100 µM; in the assay with HL-60, 4.28 µM (inactive); with KM12, 26.3 µM (inactive). Further, the GI50 is 54 µM (inactive) in the assay on NCI-H23; > 100 µM (inactive) in the assay on OVCAR-5; 26.5 µM (inactive) in the assay with OVCAR-8; 7.24 µM (inactive) with RXF 393; 51.3 µM (inactive) with SF-295; 4.15 µM (inactive) with SF-539. The results for the GI50 with SK-MEL-28, in the assay with SK-MEL-2 and with SNB-78 were > 100 µM (inactive), 22 µM (inactive) and 22.2 µM (inactive), respectively.

As to `CCCC[C@H]1[C@@H](OCOc2ccccc2)COC(=O)N1[C@H](C)c1ccccc1`, the GI50 in the assay on ACHN was 18.2 µM (inactive); in the assay on BT-549 it was 19.7 µM (inactive); in the assay with HCT-116, 7.62 µM (inactive); in the assay on HCT-15, 15.9 µM; in the assay on HL-60, 18 µM (inactive); in the assay with Hs-578T, 20.5 µM (inactive). Also, the GI50 in the assay on KM12 was 12.9 µM (inactive); with NCI-H23, 18.2 µM (inactive); in the assay with NCI/ADR-RES, > 34.3 µM (inactive); in the assay with OVCAR-5 it was 17.3 µM (inactive); with OVCAR-8, > 49.2 µM (inactive); with PC-3, 6.1 µM (inactive). Also, the GI50 was 19 µM (inactive) in the assay on RXF 393; 11.9 µM (inactive) in the assay with SF-295; 21.6 µM (inactive) in the assay with SK-MEL-28; 15.1 µM (inactive) with SK-MEL-2; 11.3 µM (inactive) in the assay with T47D.

For `C/N=C1\S/C(=N\c2ccc(N(C)C)cc2)N1C`, the GI50 with DMS-114 is 17.9 µM (inactive); with HCT-116, 32.7 µM (inactive); in the assay on HCT-15 it was 30.5 µM; in the assay with HL-60, 34.4 µM (inactive); in the assay on KM12, 57.1 µM (inactive); in the assay with NCI-H23, 32.1 µM (inactive). Further, the GI50 in the assay on OVCAR-5 is 75.5 µM (inactive); in the assay on OVCAR-8 it was 35.1 µM (inactive); with SF-295 it was 40.4 µM (inactive); with SF-539, 32.1 µM (inactive); with SK-MEL-28, 38.8 µM (inactive); with SK-MEL-2 it was 33.9 µM (inactive). For the same compound, the GI50 in the assay with SNB-78 is 22.9 µM (inactive).

For the compound `CCC(C)COC(=O)c1ccc(/N=C\c2ccc(/C=N/c3ccc(C(=O)OCC(C)CC)cc3)cc2)cc1` (stereo not given), the GI50 was > 100 µM (inactive) in the assay with ACHN; > 100 µM (inactive) in the assay on DMS-114; > 100 µM (inactive) with HCT-116; > 100 µM with HCT-15; > 100 µM (inactive) with HL-60; > 100 µM (inactive) with NCI-H23. In addition, the GI50 in the assay on OVCAR-5, with OVCAR-8, with RXF 393, in the assay with SF-295, with SF-539 and with SK-MEL-28 was > 100 µM (inactive) throughout. Further, the GI50 in the assay with SK-MEL-2 and in the assay with SNB-78 was > 100 µM (inactive) throughout.

Take `O=C(O)C1CCCCN1C(=O)c1ccccc1` (stereo not given): the GI50 in the assay on ACHN was > 100 µM (inactive); with DMS-114, > 100 µM (inactive); with HCT-116 it was > 100 µM (inactive); with HCT-15, > 100 µM; with HL-60, > 100 µM (inactive); in the assay with KM12, > 100 µM (inactive). The GI50 with NCI-H23, with OVCAR-5, in the assay on OVCAR-8, with RXF 393, in the assay with SF-295 and in the assay on SF-539 was > 100 µM (inactive) in each case. Also, the GI50 with SK-MEL-28 and in the assay on SNB-78 was > 100 µM (inactive) in each case.

For `COc1cc(C(C)O)c(S(=O)(=O)CC(C)O)nn1` (stereo not given), the GI50 is > 100 µM (inactive) with ACHN; > 100 µM (inactive) with BT-549; > 100 µM (inactive) with HCT-116; > 100 µM in the assay on HCT-15; > 100 µM (inactive) with HL-60; > 100 µM (inactive) with Hs-578T. Moreover, the GI50 in the assay with KM12 is > 100 µM (inactive); in the assay on NCI-H23, > 100 µM (inactive); in the assay on NCI/ADR-RES it was > 100 µM (inactive); in the assay on OVCAR-5, > 100 µM (inactive); in the assay on OVCAR-8 it was > 100 µM (inactive); with RXF 393, 85.3 µM (inactive). For the same compound, the GI50 in the assay with SF-295, in the assay on SF-539 and in the assay with SK-MEL-28 was > 100 µM (inactive) in each case.

Take `CCOC(=O)CCc1c(C)c2c(OC(C)=O)cc(OC(C)=O)cc2oc1=O`: the GI50 in the assay on ACHN is 28.1 µM (inactive); in the assay on DMS-114, 23.4 µM (inactive); in the assay with HCT-116, 62.1 µM (inactive); with HL-60 it was 40.2 µM (inactive); with KM12, 37.4 µM (inactive); in the assay with NCI-H23, 44.8 µM (inactive). Besides, the GI50 in the assay with OVCAR-5 is > 100 µM (inactive); with OVCAR-8, 69.3 µM (inactive); in the assay with RXF 393, 21.4 µM (inactive); in the assay on SF-295, 56.5 µM (inactive); in the assay on SF-539, 70 µM (inactive); with SK-MEL-28, 42 µM (inactive). In addition, the GI50 in the assay with SK-MEL-2 was 28.4 µM (inactive); in the assay on SNB-78 it was 47.6 µM (inactive).

Take `COc1cccc(N2C(=O)C3c4[nH]c5ccc(C)cc5c4C4CCC(C(C)(C)C)CC4C3C2=O)c1` (stereo not given): the GI50 is > 10 µM (inactive) in the assay on ACHN; 2.17 µM (inactive) in the assay on HCT-116; 6.35 µM in the assay on HCT-15; 1.95 µM (inactive) in the assay with HL-60; 3.19 µM (inactive) with Hs-578T; 3.52 µM (inactive) in the assay on KM12. The GI50 in the assay on NCI-H23 is 2.24 µM (inactive); in the assay on NCI/ADR-RES it was 3.51 µM (inactive); with OVCAR-5 it was 3.3 µM (inactive); in the assay with OVCAR-8, 2.58 µM (inactive); in the assay on PC-3 it was 4.43 µM (inactive); in the assay with RXF 393 it was 3.8 µM (inactive). In addition, the GI50 was > 10 µM (inactive) in the assay with SF-295; 2.86 µM (inactive) in the assay with SF-539; 4.61 µM (inactive) with SK-MEL-28; > 10 µM (inactive) in the assay with SK-MEL-2; 7.28 µM (inactive) in the assay with T47D.

Take `N#CCCC1(CCC#N)CCCCCCC(CCC#N)(CCC#N)C(O)C1O` (stereo not given): the GI50 in the assay with ACHN is > 100 µM (inactive); in the assay with HCT-116, > 100 µM (inactive); with HCT-15, > 100 µM; with KM12 it was > 100 µM (inactive); with NCI-H23, > 100 µM (inactive); in the assay on NCI/ADR-RES it was > 100 µM (inactive). The GI50 with OVCAR-5, in the assay with OVCAR-8, in the assay on PC-3, in the assay on RXF 393, in the assay with SF-295 and in the assay on SF-539 was > 100 µM (inactive) each time. Also, the GI50 in the assay on SK-MEL-28, in the assay with SK-MEL-2 and with T47D was > 100 µM (inactive) throughout.

In the case of `Cc1[nH]c(=O)[nH]c(=O)c1C(=O)N(CCO)Cc1ccccc1`, the GI50 in the assay on ACHN is > 100 µM (inactive); with BT-549 it was > 100 µM (inactive); in the assay with HCT-116, > 100 µM (inactive); in the assay with HCT-15 it was > 100 µM; with HL-60, > 100 µM (inactive); in the assay with Hs-578T, 14.2 µM (inactive). Also, the GI50 in the assay with KM12 was > 100 µM (inactive); in the assay on NCI-H23 it was 33 µM (inactive); in the assay with OVCAR-5 it was > 100 µM (inactive); in the assay on PC-3, 24.6 µM (inactive); with RXF 393, 30 µM (inactive); with SF-295, 35.5 µM (inactive). For the same compound, the GI50 in the assay with SF-539, in the assay on SK-MEL-28, in the assay on SK-MEL-2 and in the assay with T47D was > 100 µM (inactive) in each case.

With `CCOC(=O)C(O)(NC(=O)c1ccc(F)cc1)C(F)(F)F` (stereo not given), the GI50 in the assay with ACHN is > 100 µM (inactive); in the assay with BT-549 it was > 100 µM (inactive); in the assay on HCT-116, > 100 µM (inactive); with HCT-15, > 100 µM; in the assay with HL-60 it was > 100 µM (inactive); with Hs-578T, > 100 µM (inactive). Besides, the GI50 with KM12, in the assay on NCI-H23, with NCI/ADR-RES, with OVCAR-5, in the assay with OVCAR-8 and in the assay on PC-3 was > 100 µM (inactive) in each case. The GI50 in the assay with RXF 393, in the assay with SF-295, with SF-539, in the assay on SK-MEL-28, in the assay on SK-MEL-2 and in the assay on T47D was > 100 µM (inactive) each time.

For `O=S(=O)(O)c1cc2ccc1/C=C\c1ccc(cc1S(=O)(=O)O)/N=N\c1ccc(c(S(=O)(=O)O)c1)/C=C\c1ccc(cc1S(=O)(=O)O)/N=N\2`, the GI50 in the assay with HCT-116 is > 100 µM (inactive); with HCT-15, > 100 µM; in the assay with HL-60, > 100 µM (inactive); with KM12, > 100 µM (inactive); in the assay on NCI-H23, > 100 µM (inactive); in the assay with NCI/ADR-RES, > 100 µM (inactive). The GI50 with OVCAR-5, in the assay with OVCAR-8, in the assay with RXF 393, in the assay on SF-295, in the assay on SF-539 and in the assay on SK-MEL-28 was > 100 µM (inactive) in each case. Also, the GI50 with SK-MEL-2 and with SNB-78 was > 100 µM (inactive) in each case.

These data come from ChEMBL document CHEMBL1201862, “PubChem BioAssay data set” (2004).
